Earlier results in PMC12298827, “Subchronic Toxicities of Four Per- and Polyfluoroalkyl Substances (PFASs) by Oral Exposure in Sprague–Dawley Rats” (Toxics, 2025).

System: male and female rats
Details: cited from earlier work

Compound | Effect on absolute and relative liver weights (28- and 90-day oral gavage ref 16) | Effect on liver weights or bodyweights (doses of up to 600 mg/kg-day, 90-day oral gavage, male or female rats ref 21)
N.O=C(O)C(F)(F)C(F)(F)C(F)(F)F [ammonium perfluorobutyrate] | significant increases in the absolute and relative liver weights only in male rats | –
O=S(=O)(O)C(F)(F)C(F)(F)C(F)(F)C(F)(F)F [perfluorobutane sulfonate] | – | did not affect the liver weights or bodyweights
